This passage reports AC50, IC50 and EC50 results from ChEMBL document CHEMBL1201862, “PubChem BioAssay data set” (2004).

Some targets named below: Cytochrome P450 2D6 (Homo sapiens, UniProt P10635); Cytochrome P450 2C9 (Homo sapiens, UniProt P11712); Cytochrome P450 3A4 (Homo sapiens, UniProt P08684).
For another test, the target named is T1, Cytochrome P450 1A2 (Homo sapiens, UniProt P05177).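 Further: PubChem cytochrome P450 panel assay, CYP1A2 panel member.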
T1 sequence (P05177 whole entry): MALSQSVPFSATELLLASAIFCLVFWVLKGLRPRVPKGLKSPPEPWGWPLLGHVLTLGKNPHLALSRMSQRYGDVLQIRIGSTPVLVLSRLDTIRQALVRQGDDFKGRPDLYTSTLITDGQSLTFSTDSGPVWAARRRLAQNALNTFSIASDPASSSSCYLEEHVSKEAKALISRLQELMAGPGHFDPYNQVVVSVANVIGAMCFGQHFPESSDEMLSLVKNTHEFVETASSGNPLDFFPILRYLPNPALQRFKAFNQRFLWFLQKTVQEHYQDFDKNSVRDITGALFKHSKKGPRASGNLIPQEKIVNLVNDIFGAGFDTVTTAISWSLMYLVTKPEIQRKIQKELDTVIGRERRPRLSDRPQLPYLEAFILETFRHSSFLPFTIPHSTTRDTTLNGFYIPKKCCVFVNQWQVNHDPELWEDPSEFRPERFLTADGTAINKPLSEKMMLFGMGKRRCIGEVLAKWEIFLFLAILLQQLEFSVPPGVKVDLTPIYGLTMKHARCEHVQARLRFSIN

Test [1] in a line: Luminescence Cell-Based Dose Retest to Confirm Inhibitors of Cancer Stem Cells. [Related pubchem assays (depositor defined):AID2717, AID2721]. The format is functional. Conditions: Homo sapiens.
The next test can be described thus: cells. The format is functional.
Test [2] deals with T2, Zinc finger protein mex-5 (Caenorhabditis elegans, UniProt Q9XUB2).
T2 sequence (Q9XUB2 whole entry): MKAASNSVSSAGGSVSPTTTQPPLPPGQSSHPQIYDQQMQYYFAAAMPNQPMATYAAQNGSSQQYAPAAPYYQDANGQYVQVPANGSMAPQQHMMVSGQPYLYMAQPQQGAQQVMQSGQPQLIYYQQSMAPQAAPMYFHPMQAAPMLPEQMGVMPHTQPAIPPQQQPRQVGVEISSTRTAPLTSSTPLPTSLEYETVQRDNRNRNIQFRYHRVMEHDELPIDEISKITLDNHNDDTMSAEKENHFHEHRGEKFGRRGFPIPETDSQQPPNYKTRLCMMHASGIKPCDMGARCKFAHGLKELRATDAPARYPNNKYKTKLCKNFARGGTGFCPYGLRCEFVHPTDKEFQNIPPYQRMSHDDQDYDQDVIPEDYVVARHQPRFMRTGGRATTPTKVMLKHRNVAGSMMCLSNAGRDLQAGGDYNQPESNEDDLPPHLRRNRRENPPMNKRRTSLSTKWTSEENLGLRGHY
Put plainly: MEX-5/TCR-2 RNA interaction inhibitors, dose response, biochemical, C. elegans, fluorescence polarization (AID 1960). Background: Polarisation of emitted light reports the rotation of a fluorescent probe.

In test [3] the target is T3, RNA-binding protein pos-1 (Caenorhabditis elegans, UniProt G5EF15).
T3 sequence (G5EF15 whole entry): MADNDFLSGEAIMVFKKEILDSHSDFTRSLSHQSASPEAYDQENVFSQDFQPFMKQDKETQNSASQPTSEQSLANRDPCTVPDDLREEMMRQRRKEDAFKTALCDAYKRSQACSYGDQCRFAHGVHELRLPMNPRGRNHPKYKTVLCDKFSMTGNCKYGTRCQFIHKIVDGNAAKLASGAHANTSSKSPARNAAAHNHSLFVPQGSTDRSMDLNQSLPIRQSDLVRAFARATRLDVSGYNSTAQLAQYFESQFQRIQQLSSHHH
Description: inhibitors of POS-1/mex-3 RNA binding, dose response, biochemical, fluorescence polarization (AID 1964).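 Further: purified POS-1 fused to maltose binding protein made in E. coli; potency of compounds blocking POS-1 binding to fluorescent RNA.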

Another test has as its target Cytochrome P450 2C19 (Homo sapiens, UniProt P33261). Put plainly: Cytochrome panel assay with activity outcomes. Panel member name: p450-cyp2c19 Compounds with AC50 equal or less than 10 uM are considered active. The format is functional. Conditions: read-out: AC50.

Active and inactive are the calls of the source.

Chain of Cytochrome P450 2C9 (P11712 whole entry): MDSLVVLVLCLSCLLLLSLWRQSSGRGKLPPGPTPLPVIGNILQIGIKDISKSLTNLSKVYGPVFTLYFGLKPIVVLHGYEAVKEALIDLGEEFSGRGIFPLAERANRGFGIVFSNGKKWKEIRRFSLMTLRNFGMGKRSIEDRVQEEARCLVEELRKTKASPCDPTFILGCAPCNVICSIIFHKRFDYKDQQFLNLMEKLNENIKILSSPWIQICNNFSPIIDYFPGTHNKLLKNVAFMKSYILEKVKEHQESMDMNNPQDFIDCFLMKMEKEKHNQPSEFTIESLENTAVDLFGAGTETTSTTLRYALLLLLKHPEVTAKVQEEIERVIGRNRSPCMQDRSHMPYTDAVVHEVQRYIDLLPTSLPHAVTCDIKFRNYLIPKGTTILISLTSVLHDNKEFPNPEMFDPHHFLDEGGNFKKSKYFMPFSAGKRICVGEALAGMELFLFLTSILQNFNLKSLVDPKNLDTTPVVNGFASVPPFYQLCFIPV
Chain of Cytochrome P450 3A4 (P08684 whole entry): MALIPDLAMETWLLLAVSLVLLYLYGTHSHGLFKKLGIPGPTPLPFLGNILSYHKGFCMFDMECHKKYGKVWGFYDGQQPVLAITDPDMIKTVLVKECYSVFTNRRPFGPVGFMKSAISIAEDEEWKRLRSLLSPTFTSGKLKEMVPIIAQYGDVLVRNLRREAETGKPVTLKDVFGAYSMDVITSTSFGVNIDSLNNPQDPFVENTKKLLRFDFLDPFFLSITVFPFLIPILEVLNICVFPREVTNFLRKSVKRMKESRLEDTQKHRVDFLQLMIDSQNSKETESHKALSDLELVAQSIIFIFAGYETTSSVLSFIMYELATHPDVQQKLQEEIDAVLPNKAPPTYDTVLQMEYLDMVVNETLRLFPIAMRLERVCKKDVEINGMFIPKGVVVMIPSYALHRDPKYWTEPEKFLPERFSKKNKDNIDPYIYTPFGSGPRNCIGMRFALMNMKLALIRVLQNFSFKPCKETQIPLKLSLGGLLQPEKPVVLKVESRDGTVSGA
Chain of Cytochrome P450 2D6 (P10635 whole entry): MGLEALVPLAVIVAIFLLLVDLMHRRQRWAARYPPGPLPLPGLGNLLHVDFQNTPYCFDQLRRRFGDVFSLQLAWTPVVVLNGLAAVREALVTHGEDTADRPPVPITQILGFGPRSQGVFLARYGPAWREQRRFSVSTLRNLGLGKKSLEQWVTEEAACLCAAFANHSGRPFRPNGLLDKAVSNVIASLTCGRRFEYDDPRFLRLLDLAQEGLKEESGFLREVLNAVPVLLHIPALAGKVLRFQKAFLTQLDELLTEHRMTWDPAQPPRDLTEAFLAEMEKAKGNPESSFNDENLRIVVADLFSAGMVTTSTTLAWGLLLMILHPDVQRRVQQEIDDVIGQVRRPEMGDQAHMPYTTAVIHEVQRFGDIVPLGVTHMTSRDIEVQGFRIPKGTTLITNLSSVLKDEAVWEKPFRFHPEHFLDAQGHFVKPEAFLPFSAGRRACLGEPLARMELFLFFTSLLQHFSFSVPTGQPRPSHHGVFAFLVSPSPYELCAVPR
Chain of Cytochrome P450 2C19 (P33261 whole entry): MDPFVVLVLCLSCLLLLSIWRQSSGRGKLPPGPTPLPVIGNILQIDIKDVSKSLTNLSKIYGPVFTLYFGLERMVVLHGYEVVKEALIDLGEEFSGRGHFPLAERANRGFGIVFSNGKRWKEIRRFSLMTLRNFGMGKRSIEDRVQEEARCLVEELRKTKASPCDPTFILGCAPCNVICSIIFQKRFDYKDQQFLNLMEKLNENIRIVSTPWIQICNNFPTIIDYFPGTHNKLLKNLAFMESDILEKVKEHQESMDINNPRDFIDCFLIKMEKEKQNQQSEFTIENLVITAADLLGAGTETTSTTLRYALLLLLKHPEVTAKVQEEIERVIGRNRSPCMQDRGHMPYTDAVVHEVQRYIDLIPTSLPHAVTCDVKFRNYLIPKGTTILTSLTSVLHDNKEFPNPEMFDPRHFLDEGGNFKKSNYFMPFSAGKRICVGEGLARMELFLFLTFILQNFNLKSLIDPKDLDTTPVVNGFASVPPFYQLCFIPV

One may read the AC50 as the concentration at which the activity in the assay is half-maximal. Turning to `COc1ccccc1NC(=O)C1=C(C)Nc2nnnn2C1c1cccc(Br)c1` (centres undefined), the AC50 at Cytochrome P450 1A2 was 31.6 µM (inconclusive); on Cytochrome P450 2D6 it was 15.8 µM (inconclusive).

With `CCCCCCSc1cccc(-c2nc3ccc(Cl)cn3c2NCc2ccccc2)c1`, in test [1], the half-maximal activity concentration (AC50) is 1.55 µM (active).

As for `N[C@H]1C[C@H]1c1ccccc1`, the AC50 at Cytochrome P450 2D6 and at Cytochrome P450 2C9 was 12.6 µM (inconclusive) in each case.

By IC50 is commonly meant the point on the concentration scale where inhibition reaches its midpoint. `CN1CCN(c2c(F)cc3c(=O)c(C(=O)O)cn4c3c2SCC4)CC1`: the half-maximal inhibitory concentration (IC50) in the test “cells” was 8.05 µM (active).

Consider `COc1ccc(CNc2ccnc(-c3ccccc3CN(C)C)n2)c(OC)c1`, for which the half-maximal activity concentration (AC50) on Cytochrome P450 1A2 is 15.8 µM (inconclusive).

On to `O=C(Oc1cccc2cccnc12)c1cccc([N+](=O)[O-])c1`, for which, in the test “cells”, the half-maximal inhibitory concentration (IC50) is 10.9 µM (active).

Regarding `COCC(=O)N1CCC2(CCCN(c3ccncc3)C2)CC1`, the AC50 at Cytochrome P450 3A4 is 25.1 µM (inconclusive).

For `COc1ccc(CCNc2cc(C)nc3c(-c4ccc(Cl)cc4)c(C)nn23)cc1OC`, in test [1], the half-maximal activity concentration (AC50) is 2.88 µM (active).

In the case of `Cc1c(NC(=O)/C=C/c2cn(-c3ccccc3)nc2-c2ccc(F)cc2)c(=O)n(-c2ccccc2)n1C`, the results for the AC50 on Cytochrome P450 3A4, at Cytochrome P450 1A2 and at Cytochrome P450 2C9 were 25.1 µM (inconclusive), 28.2 µM (inconclusive) and 20 µM (inconclusive), respectively.

Take `CCCc1cc(-c2nc(-c3ccc(C)cc3)cs2)ccn1`: the half-maximal activity concentration (AC50) in test [1] is 3.62 µM (active).

As a reminder, the EC50 is the concentration that produces a half-maximal response. Low readings indicate an effect from little substance, high ones a need for much substance. In the case of `O=C(NCCN1CCOCC1)c1cccn2c(=O)c3c4c(sc3nc12)CCCC4`, the EC50 in [2] and in [3] was > 300 µM (not active) in each case.

Regarding `CCCCC/N=c1\ccn(Cc2ccccc2)c2ccccc12` [CP-339818], the AC50 was 15.8 µM (inconclusive) on Cytochrome P450 3A4 and 25.1 µM (inconclusive) on Cytochrome P450 1A2.

As for `Cc1cccc2cc(CN(Cc3ccccc3)C(=O)c3cccc(F)c3)c(Cl)nc12`, the AC50 on Cytochrome P450 1A2 is 11.2 µM (inconclusive); on Cytochrome P450 2D6, 15.8 µM (inconclusive).

On to `Cc1ccnc(NC(=O)COc2ccc3c(c2)CCC3)c1`, for which the concentration for half-maximal inhibition (IC50) in “cells” is 24.5 µM (active).

For `CS(=O)(=O)N1CCC[C@@]2(CCN(Cc3nccs3)C2)C1`, the values for the AC50 at Cytochrome P450 3A4, at Cytochrome P450 2C19 and on Cytochrome P450 2D6 were 12.6 µM (inconclusive), 39.8 µM (inconclusive) and 39.8 µM (inconclusive), respectively.

Take `CC#C[C@]1(O)CC[C@H]2[C@@H]3CCC4=CC(=O)CCC4=C3[C@H](c3ccc(N(C)C)cc3)C[C@@]21C`: the AC50 at Cytochrome P450 1A2 was 25.1 µM (inconclusive).

Turning to `Cc1ccccc1OCCNC=C1C(=O)N(C)C(=O)N(C)C1=O`, the AC50 was 20 µM (inconclusive) on Cytochrome P450 3A4 and 0.0126 µM (inconclusive) at Cytochrome P450 2C9.

Consider `Cn1cccc1C(=O)N1CCC[C@@]2(CCN(Cc3cc(C(F)(F)F)cc(C(F)(F)F)c3)C2)C1`, for which the AC50 at Cytochrome P450 2C19 and on Cytochrome P450 2C9 was 39.8 µM (inconclusive) each time.

With `CN1CCN(c2ccc([N+](=O)[O-])c(NCc3ccco3)c2)CC1`, the AC50 in test [1] is 0.512 µM (active).

As to `COc1ccc(-c2sc3ccccc3c2/C=C/c2ccc(N)cc2)cc1`, the AC50 in [1] was 3.98 µM (active).

Consider `CN(C)CCOc1ccc(C(C)(C)c2ccccc2)cc1`, for which, in test [1], the AC50 is 1.96 µM (active).

Take `CCc1cc2c(nc1CC)CCN(CC/C(C)=N/OC[C@@H](O)COCc1ccco1)C2`: the values for the concentration at half-maximal activity (AC50) on Cytochrome P450 3A4 and on Cytochrome P450 2D6 were 3.16 µM (inconclusive) and 3.98 µM (inconclusive), respectively.

With `CO[C@@H]1COC(=O)[C@@H](CCSC)NC(=O)C/C=C\[C@@H](C)COC(=O)CCC[C@H]1C`, the AC50 at Cytochrome P450 3A4 was 3.98 µM (inconclusive).

With `O=C(C[C@H](c1ccccc1)c1c(O)c2ccccc2oc1=O)c1ccccc1`, the half-maximal activity concentration (AC50) on Cytochrome P450 3A4 was 3.16 µM (inconclusive).

Regarding `CCS(=O)(=O)c1ccc(O)c(NC(=O)Nc2ccccc2)c1`, the results for the AC50 on Cytochrome P450 2C19, on Cytochrome P450 1A2 and at Cytochrome P450 2C9 were 39.8 µM (inconclusive), 20 µM (inconclusive) and 7.08 µM (inconclusive), respectively.

For the compound `CN(C)CCNc1nc2sc3c(c2c(=O)n1-c1ccccc1)CCCCC3`, the half-maximal activity concentration (AC50) in test [1] is 4.27 µM (active).

With `C[C@@H](Cc1ccc(Cl)cc1Cl)NO`, the AC50 at Cytochrome P450 1A2 is 0.251 µM (active).

With `O=C(Nc1cccc([N+](=O)[O-])c1)c1ccc(CSc2ccccc2)cc1`, the results for the concentration at half-maximal activity (AC50) on Cytochrome P450 3A4, at Cytochrome P450 2C19 and on Cytochrome P450 2C9 were 20 µM (inconclusive), 14.1 µM (inconclusive) and 0.562 µM (inconclusive), respectively.

With `CCOC(=O)CC1C(=O)NCCN1S(=O)(=O)c1ccccc1Cl` (centres undefined), the AC50 on Cytochrome P450 3A4 is 14.1 µM (inconclusive); at Cytochrome P450 2C19, 11.2 µM (inconclusive); at Cytochrome P450 2D6 it was 0.891 µM (inconclusive); at Cytochrome P450 2C9 it was 0.00562 µM (inconclusive).

With `CCOC(=O)n1c(=O)n(Cc2ccccc2Cl)c2ccccc21`, the concentration at half-maximal activity (AC50) on Cytochrome P450 3A4 was 15.8 µM (inconclusive); at Cytochrome P450 2D6, 28.2 µM (inconclusive).

As to `Cc1cccc(CN2CCN([C@@H](c3ccccc3)c3ccc(Cl)cc3)CC2)c1`, the AC50 is 2.51 µM (inconclusive) on Cytochrome P450 2C19 and 10 µM (inconclusive) on Cytochrome P450 1A2.

Take `COCCn1c(C(=O)N2CCCC2)cc2c1C[C@H]1CN(C(=O)c3ccccc3)[C@@](Cc3ccc(OC)cc3)(C(=O)OC)[C@@H]21`: the half-maximal activity concentration (AC50) at Cytochrome P450 2C19 and at Cytochrome P450 2C9 was 39.8 µM (inconclusive) each time.

Take `COC(=O)CN(C#N)c1nc(SC)nc(N(C)C)n1`: the IC50 in the test “cells” is 18.9 µM (active).

`CCNc1ncc2nc(-c3cccs3)c(=O)n(Cc3cccc(OC)c3)c2n1`: the AC50 at Cytochrome P450 3A4 was 12.6 µM (inconclusive); on Cytochrome P450 1A2, 0.126 µM (inconclusive).

With `CCOC(=O)CSCC(NC(=O)OC(C)(C)C)C(=O)OCC` (centres undefined), the values for the AC50 at Cytochrome P450 1A2 and on Cytochrome P450 2C9 were 25.1 µM (inconclusive) and 14.1 µM (inconclusive), respectively.

For `CCN1CCN(c2cc(C(C)(C)C)nc3c(-c4ccccc4)c(C)nn23)CC1`, in test [1], the AC50 is 5.68 µM (active).

`Cc1ccc2cc3c(nc2c1)OCC3`: the concentration for half-maximal inhibition (IC50) in “cells” was > 50 µM (active).

For `N[C@H](Cc1ccc2oc3cc(=O)c4ccccc4c-3nc2c1)C(=O)O`, the half-maximal activity concentration (AC50) on Cytochrome P450 3A4 is 3.98 µM (inconclusive).

As for `O=C(O)c1ccccc1C(=O)NNc1ccc(Cl)cc1`, the AC50 at Cytochrome P450 2C19 was 5.01 µM (inconclusive); on Cytochrome P450 1A2 it was 6.31 µM (inconclusive); in test [1] it was 0.983 µM (active).

For the compound `O=[N+]([O-])c1cc(F)c(N2CCOCC2)cc1N1CCCCC1`, the half-maximal activity concentration (AC50) at Cytochrome P450 3A4 was 17.8 µM (inconclusive).

Take `O=C(CCCC1=NS(=O)(=O)c2ccccc2N1)N1CCC2(CC1)OCCO2`: the results for the concentration at half-maximal activity (AC50) on Cytochrome P450 3A4, at Cytochrome P450 2C19 and on Cytochrome P450 2C9 were 35.5 µM (inconclusive), 17.8 µM (inconclusive) and 25.1 µM (inconclusive), respectively.

With `CC1=CC(C)(C)N(C)C(=O)N1c1ccc(Cl)cc1`, the AC50 on Cytochrome P450 1A2 is 17.8 µM (inconclusive); at Cytochrome P450 2C9, 31.6 µM (inconclusive).

For `CC1CCCN(c2ccc(C(=O)N3CCC4(CC3)OCCO4)cc2[N+](=O)[O-])C1` (centres undefined), the half-maximal activity concentration (AC50) in test [1] is 4.55 µM (active).

For `Cc1ccc(C(=O)Cn2nnc3c(sc4nc5c(c(-c6ccccc6)c43)CCC5)c2=O)cc1`, the AC50 was 25.1 µM (inconclusive) on Cytochrome P450 2C19 and 0.462 µM (active) in test [1].

Turning to `CN(C)c1ncnc2ccc(-c3ccccc3C(F)(F)F)cc12`, the AC50 on Cytochrome P450 3A4 was 10 µM (inconclusive); at Cytochrome P450 2D6 it was 15.8 µM (inconclusive).

As to `O=C(COC(=O)c1cc(Cl)ccc1O)c1ccc2c(c1)OCO2`, the half-maximal inhibitory concentration (IC50) in the test “cells” is 12.1 µM (active).

On to `CCOC(=O)COc1cc(O)c2c(=O)cc(-c3ccccc3)oc2c1`, for which the IC50 in “cells” is 0.86 µM (active).

With `CC(C)c1cccc(C(C)C)c1OC(=O)[C@H]1OC(c2ccc(Br)cc2)=C[C@@H]1c1ccc(Br)cc1`, the AC50 in [1] was 3.58 µM (active).
